Assay results: patent publication US20080261862A1, “Materials and Methods for Modulating Signalling by Alpha-V Integring Molecules” (priority 2004, published 2008)
Entries after “also recorded” stand apart in the source; their conditions may differ.

B1: vitronectin (protein, UniProt P04004 20-478, looked up)
Vitronectin: DQESCKGRCTEGFNVDKKCQCDELCSYYQSCCTDYTAECKPQVTRGDVFTMPEDEYTVYDDGEEKNNATVHEQVGGPSLTSDLQAQSKGNPEQTPVLKPEEEAPAPEVGASKPEGIDSRPETLHPGRPQPPAEEELCSGKPFDAFTDLKNGSLFAFRGQYCYELDEKAVRPGYPKLIRDVWGIEGPIDAAFTRINCQGKTYLFKGSQYWRFEDGVLDPDYPRNISDGFDGIPDNVDAALALPAHSYSGRERVYFFKGKQYWEYQFQHQPSQEECEGSSLSAVFEHFAMMQRDSWEDIFELLFWGRTSAGTRQPQFISRDWHGVPGQVDAAMAGRIYISGMAPRPSLAKKQRFRHRNRKGYRSQRGHSRGRNQNSRRPSRATWLSLFSSEESNLGANNYDDYRMDWLVPATCEPIQSVFFFSGDKYYRVNLRTRRVDTVDPPYPRSIAQYWLGCPAPGHL
notes: extracellular matrix protein, RGD-containing αv ligand

Tests used:
SMS-SB cells [1] = assay: Proliferation ([3H]-thymidine incorporation) of low cell density SMS-SB cultures; format: cell-based, human; details: 72 hr; for growth / thymidine incorporation of SMS-SB cells: LCD cultures, 2500 cells/well
Method: For stimulation experiments, SMS-SB cells were cultured at 2500 cells/100 μl culture (low cell density, LCD) a seeding density at which the cells are prone to apoptose^15. NALM-6 cells were washed extensively in PFHM prior to culture at 2, 500 cells/100 μl culture. Cultures were propagated, in the presence or absence of cytokines, MAbs or peptides, at 37° C. for 72 hours followed by addition of 0.3 μCi/well tritiated thymidine ([^3H]-TdR) for 18 hours prior to harvest; incorporation was determined by liquid scintillation spectrometry. Apoptosis was determined by staining harvested cells with propidium iodide (PI) and Hoechst 33342 for 1 minute prior to analysis on a Coulter Elite flow cytometer as previously described^15. For stromal cell/SMS-SB co-cultures, 6000 stromal cells were seeded into individual wells of a 96-well tray and allowed to adhere for 24 hr; anti-CD23 MAb or isotype matched control and SMS-SB cells were added to the wells to give a total culture volume of 100 μl. SMS-SB cells were added at 5, 25 or 50 cells per well and cultures were allowed to expand over a 2-4 week period.

SMS-SB cells [2] = assay: Flow cytometry binding of biotinylated peptides to SMS-SB cells; format: cell-based, human
From the text: FIG. 3C:—Binding of biotinylated peptides to pre-B cell lines was detected by addition of PE-streptavidin and flow cytometry; mean fluorescence index (MFI) data were derived using CellQuest software. The flow cytometric plots for binding of peptides #9 (black line), #11 (grey line) and #57 (shaded area) are illustrated (Panel i), and MFI data for binding of the noted peptides to SMS-SB (Panel ii), Blin-1 (Panel iii) and Nalm-6 (Panel iv) are shown. The unique nine amino acid sequence of each biotinylated tridecapeptide is shown with the RKC motif shared by αvβ5 binding peptides shown in bold (Panel ii).
Binding of peptides to cells was visualised by treating cells exposed to biotinylated peptides with fluorochrome-conjugated streptavidin and scoring binding by flow cytometry; mean fluorescence intensity data were obtained using the CellQuest programme. In culture experiments, peptides were used in the 10 nM to […] concentration range and appropriate solvent vehicle controls (e.g., acetonitrile, DMSO) were always performed.

Row | Molecule | effect of RGDS on SMS-SB growth / thymidine incorporation induced by peptides #9 and #12 (SMS-SB cells [1]; 10 μg/ml RGDS) | effect of excess RGDS on peptide binding to SMS-SB cells (SMS-SB cells [2]; ten-fold excess / 10 μg/ml RGDS) | growth / thymidine incorporation of SMS-SB cells (SMS-SB cells [1]) | binding of biotinylated peptide to SMS-SB cells (SMS-SB cells [2]; flow cytometry, MFI)
1 | RGDS | nor inhibits thymidine incorporation induced by peptides #9 and #12; also recorded: fails to block | neither impedes peptide binding to SMS-SB cells; also recorded: fails to block binding of peptide #9 to SMS-SB cells |  | 
2 | CKRQFNIWK [9-INV] |  |  | reduces substantially, but does not ablate, its ability to elevate thymidine incorporation | does not reduce greatly binding
3 | fibronectin [Fn] |  |  | neither Vn nor Fn sustain the growth of SMS-SB cells | 
4 | B1 |  |  | neither Vn nor Fn sustain the growth of SMS-SB cells | 
